In ChEMBL document CHEMBL5465560, “Selectivity Literature for EUbOPEN Chemogenomic Library” (2024):
pIC50: −log10 of the molar value.

Assays:
[1] = tested on: Epidermal growth factor receptor (Homo sapiens), P00533 [UNDEFINED MUTATION]; assay: Selectivity interaction (KinomeScan (DiscoverX)) EUB0000045b EGFR; settings: at 1 µM
[2] = target: T1, Serine/threonine-protein kinase ULK3 (Homo sapiens) (UniProt Q6PHR2); assay: Selectivity interaction (KinomeScan (DiscoverX)) EUB0001079a ULK3; settings: at 1 µM
T1 sequence (whole entry): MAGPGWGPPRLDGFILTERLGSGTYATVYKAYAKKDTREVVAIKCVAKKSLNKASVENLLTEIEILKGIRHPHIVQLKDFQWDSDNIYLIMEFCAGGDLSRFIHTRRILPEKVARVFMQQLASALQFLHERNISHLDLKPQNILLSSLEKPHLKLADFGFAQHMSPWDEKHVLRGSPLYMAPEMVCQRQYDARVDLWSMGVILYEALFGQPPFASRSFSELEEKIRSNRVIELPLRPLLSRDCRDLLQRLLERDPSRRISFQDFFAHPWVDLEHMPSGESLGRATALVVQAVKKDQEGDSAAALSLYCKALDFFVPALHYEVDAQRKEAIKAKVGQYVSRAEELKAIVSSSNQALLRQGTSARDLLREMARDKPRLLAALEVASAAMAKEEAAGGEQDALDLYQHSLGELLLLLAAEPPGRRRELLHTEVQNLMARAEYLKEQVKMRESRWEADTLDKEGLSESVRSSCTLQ

[3] = target: T2, Serine/threonine-protein kinase Chk1 (Homo sapiens) (UniProt O14757); assay: Selectivity interaction (Millipore kinase profiler) EUB0000124b CHEK1; settings: at 10 µM
T2 sequence (whole entry): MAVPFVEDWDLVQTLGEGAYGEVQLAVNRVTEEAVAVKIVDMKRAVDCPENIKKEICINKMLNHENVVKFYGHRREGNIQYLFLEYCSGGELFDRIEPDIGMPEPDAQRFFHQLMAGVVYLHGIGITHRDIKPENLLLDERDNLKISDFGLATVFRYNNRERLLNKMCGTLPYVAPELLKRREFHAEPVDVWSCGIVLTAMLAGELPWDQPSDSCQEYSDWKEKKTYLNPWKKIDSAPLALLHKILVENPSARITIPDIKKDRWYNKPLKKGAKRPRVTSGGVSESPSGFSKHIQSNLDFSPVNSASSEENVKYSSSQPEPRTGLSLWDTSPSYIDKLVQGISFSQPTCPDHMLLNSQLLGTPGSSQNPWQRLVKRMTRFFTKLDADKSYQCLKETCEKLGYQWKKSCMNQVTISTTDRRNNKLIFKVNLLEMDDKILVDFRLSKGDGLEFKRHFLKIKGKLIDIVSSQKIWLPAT

[4] = target: Tyrosine-protein kinase Lck (Homo sapiens, UniProt P06239)
Tyrosine-protein kinase Lck, sequence (P06239 whole entry): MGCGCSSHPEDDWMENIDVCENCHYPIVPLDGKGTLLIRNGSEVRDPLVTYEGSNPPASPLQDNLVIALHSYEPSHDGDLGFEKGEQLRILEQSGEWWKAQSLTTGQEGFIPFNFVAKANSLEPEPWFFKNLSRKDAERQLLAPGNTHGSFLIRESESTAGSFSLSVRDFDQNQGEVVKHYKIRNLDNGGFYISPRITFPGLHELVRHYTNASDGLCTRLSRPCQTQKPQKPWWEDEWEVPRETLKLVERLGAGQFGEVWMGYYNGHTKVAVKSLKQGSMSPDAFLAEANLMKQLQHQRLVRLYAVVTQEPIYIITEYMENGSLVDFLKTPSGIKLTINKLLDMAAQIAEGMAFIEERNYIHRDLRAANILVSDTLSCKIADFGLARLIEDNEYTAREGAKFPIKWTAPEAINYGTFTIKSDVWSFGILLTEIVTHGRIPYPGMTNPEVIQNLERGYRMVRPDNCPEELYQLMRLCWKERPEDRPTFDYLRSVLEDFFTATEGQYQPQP

[5] = tested on: ALK tyrosine kinase receptor (Homo sapiens), Q9UM73 [C1156Y]; assay: (§1) Selectivity interaction (ProQinase) EUB0000171b ALK
ALK tyrosine kinase receptor (Homo sapiens), Q9UM73 [C1156Y], sequence (Q9UM73 whole entry C1156Y, looked up): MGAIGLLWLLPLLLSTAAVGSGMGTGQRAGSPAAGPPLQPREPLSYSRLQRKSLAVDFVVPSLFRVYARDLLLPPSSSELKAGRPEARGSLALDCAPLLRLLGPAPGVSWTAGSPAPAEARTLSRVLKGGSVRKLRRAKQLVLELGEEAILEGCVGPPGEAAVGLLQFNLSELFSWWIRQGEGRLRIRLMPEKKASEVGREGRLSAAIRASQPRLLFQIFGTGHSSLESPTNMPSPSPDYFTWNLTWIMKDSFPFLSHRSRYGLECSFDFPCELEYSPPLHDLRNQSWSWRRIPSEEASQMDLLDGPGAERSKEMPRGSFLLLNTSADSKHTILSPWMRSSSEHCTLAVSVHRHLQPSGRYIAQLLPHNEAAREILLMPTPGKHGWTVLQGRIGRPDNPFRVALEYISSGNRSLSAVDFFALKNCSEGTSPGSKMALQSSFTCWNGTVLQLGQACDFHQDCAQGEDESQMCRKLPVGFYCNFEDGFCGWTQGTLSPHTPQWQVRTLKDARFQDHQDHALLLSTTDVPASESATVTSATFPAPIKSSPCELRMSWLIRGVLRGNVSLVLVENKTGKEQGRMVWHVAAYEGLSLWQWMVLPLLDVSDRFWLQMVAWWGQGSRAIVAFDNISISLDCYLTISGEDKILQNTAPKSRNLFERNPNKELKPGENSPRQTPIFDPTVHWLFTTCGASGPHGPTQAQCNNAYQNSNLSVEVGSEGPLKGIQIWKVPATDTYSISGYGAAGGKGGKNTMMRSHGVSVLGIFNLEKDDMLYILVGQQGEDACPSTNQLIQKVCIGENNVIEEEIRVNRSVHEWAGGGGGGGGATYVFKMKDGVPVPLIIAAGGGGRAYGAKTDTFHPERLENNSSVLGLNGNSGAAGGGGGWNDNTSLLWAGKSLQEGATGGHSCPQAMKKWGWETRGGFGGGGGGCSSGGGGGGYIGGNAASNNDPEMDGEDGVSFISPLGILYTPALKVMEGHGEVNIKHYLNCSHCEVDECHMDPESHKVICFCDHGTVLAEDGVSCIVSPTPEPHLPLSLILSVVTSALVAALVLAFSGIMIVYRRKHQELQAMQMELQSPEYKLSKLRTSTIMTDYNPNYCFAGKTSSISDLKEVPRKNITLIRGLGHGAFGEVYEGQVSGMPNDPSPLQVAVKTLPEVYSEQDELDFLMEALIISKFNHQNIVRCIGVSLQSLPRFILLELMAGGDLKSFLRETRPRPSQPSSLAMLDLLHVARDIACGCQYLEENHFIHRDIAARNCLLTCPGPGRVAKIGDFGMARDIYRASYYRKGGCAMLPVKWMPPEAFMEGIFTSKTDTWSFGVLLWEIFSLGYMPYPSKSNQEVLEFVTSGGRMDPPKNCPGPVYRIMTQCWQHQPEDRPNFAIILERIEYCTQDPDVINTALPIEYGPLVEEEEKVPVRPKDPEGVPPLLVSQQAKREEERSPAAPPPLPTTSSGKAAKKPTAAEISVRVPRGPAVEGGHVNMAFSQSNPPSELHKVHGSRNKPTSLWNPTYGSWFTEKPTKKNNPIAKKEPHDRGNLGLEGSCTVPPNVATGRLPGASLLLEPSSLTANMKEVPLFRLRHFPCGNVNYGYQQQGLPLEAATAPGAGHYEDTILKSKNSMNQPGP

[6] = tested on: ALK tyrosine kinase receptor (Homo sapiens), Q9UM73 [R1275Q]; assay: as §1
ALK tyrosine kinase receptor (Homo sapiens), Q9UM73 [R1275Q], sequence (Q9UM73 whole entry R1275Q): as the sequence (Q9UM73 whole entry C1156Y, looked up) above, with Y1156C, R1275Q counted along it

[7] = tested on: ALK tyrosine kinase receptor (Homo sapiens), Q9UM73 [F1174L]; assay: as §1
ALK tyrosine kinase receptor (Homo sapiens), Q9UM73 [F1174L], sequence (Q9UM73 whole entry F1174L): as the sequence (Q9UM73 whole entry C1156Y, looked up) above, with Y1156C, F1174L counted along it

[8] = tested on: ALK tyrosine kinase receptor (Homo sapiens), Q9UM73 [L1196M]; assay: as §1
ALK tyrosine kinase receptor (Homo sapiens), Q9UM73 [L1196M], sequence (Q9UM73 whole entry L1196M, looked up): as the sequence (Q9UM73 whole entry C1156Y, looked up) above, with Y1156C, L1196M counted along it

[9] = target: ALK tyrosine kinase receptor (Homo sapiens, UniProt Q9UM73); assay: as §1
ALK tyrosine kinase receptor, sequence (Q9UM73 19-1620 limits assumed): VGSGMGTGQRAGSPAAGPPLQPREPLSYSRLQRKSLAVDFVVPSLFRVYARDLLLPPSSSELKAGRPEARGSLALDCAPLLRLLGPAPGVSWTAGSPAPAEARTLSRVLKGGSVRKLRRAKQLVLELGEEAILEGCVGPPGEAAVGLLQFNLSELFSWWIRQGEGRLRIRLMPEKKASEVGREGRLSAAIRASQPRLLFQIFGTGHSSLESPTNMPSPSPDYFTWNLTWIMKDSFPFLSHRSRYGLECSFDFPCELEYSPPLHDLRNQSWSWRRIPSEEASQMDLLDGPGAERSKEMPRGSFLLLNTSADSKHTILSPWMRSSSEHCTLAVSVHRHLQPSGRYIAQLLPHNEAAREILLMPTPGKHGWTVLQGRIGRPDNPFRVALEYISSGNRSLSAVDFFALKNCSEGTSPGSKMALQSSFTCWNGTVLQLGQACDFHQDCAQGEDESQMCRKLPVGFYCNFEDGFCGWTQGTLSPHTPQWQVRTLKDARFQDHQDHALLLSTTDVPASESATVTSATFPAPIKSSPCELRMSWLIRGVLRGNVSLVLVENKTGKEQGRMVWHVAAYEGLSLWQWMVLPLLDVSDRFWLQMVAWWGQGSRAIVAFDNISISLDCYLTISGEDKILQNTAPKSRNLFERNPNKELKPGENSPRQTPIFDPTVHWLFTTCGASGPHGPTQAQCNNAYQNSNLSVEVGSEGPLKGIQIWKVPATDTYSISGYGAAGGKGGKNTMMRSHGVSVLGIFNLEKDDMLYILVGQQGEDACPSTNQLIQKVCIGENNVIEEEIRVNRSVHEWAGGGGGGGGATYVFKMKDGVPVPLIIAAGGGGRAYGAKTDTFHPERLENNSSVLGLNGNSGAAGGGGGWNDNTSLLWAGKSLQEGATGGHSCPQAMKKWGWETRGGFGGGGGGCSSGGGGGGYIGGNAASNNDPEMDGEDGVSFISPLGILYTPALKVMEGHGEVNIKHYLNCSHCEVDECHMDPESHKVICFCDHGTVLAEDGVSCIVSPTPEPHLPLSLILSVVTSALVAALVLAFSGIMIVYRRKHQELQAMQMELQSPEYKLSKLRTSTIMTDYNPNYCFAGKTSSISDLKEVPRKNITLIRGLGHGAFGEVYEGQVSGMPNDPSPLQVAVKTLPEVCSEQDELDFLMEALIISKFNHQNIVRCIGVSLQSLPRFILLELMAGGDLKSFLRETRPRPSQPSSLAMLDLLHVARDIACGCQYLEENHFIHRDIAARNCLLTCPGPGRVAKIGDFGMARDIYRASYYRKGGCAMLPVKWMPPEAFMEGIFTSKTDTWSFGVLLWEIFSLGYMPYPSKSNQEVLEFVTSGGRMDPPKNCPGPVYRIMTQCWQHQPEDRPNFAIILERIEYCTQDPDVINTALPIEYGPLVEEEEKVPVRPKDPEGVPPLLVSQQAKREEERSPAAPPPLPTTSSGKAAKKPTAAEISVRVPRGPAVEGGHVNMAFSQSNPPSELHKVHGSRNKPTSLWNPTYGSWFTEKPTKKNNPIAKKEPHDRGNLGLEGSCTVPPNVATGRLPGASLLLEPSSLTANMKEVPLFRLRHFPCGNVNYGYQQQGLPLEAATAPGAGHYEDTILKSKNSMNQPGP

[10] = tested on: ALK tyrosine kinase receptor (Homo sapiens), Q9UM73 [F1174S]; assay: as §1
ALK tyrosine kinase receptor (Homo sapiens), Q9UM73 [F1174S], sequence (Q9UM73 whole entry F1174S): as the sequence (Q9UM73 whole entry C1156Y, looked up) above, with Y1156C, F1174S counted along it

[11] = target: Eukaryotic translation initiation factor 2-alpha kinase 1 (Homo sapiens) (UniProt Q9BQI3); assay: Selectivity interaction (ProQinase) EUB0000171b EIF2AK1
Eukaryotic translation initiation factor 2-alpha kinase 1 (Homo sapiens), sequence (Q9BQI3 whole entry): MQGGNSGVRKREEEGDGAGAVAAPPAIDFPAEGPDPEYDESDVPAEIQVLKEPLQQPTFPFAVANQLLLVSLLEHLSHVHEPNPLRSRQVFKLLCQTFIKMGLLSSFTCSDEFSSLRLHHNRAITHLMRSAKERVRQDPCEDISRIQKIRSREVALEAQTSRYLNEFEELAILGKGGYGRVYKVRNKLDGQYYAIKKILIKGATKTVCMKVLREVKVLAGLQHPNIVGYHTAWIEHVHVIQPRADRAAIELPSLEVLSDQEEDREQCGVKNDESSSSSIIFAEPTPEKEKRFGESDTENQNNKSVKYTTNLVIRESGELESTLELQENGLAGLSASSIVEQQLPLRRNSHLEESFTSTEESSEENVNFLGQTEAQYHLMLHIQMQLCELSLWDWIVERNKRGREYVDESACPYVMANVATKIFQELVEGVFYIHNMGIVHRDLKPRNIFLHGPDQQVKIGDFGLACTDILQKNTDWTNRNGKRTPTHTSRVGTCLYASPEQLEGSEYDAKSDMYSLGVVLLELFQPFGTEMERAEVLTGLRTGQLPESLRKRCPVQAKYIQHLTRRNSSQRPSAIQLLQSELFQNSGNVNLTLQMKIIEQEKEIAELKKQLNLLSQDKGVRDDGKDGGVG

[12] = target: T3, Cyclin-dependent kinase 11A (Homo sapiens) (UniProt Q9UQ88); assay: Selectivity interaction (ActivX KiNativ screen (kinase selectivity in THP-1 cell lysates)) EUB0000639a CDK11A; assay type: subcellular; settings: lysate, at 0.04 µM
T3 sequence (whole entry): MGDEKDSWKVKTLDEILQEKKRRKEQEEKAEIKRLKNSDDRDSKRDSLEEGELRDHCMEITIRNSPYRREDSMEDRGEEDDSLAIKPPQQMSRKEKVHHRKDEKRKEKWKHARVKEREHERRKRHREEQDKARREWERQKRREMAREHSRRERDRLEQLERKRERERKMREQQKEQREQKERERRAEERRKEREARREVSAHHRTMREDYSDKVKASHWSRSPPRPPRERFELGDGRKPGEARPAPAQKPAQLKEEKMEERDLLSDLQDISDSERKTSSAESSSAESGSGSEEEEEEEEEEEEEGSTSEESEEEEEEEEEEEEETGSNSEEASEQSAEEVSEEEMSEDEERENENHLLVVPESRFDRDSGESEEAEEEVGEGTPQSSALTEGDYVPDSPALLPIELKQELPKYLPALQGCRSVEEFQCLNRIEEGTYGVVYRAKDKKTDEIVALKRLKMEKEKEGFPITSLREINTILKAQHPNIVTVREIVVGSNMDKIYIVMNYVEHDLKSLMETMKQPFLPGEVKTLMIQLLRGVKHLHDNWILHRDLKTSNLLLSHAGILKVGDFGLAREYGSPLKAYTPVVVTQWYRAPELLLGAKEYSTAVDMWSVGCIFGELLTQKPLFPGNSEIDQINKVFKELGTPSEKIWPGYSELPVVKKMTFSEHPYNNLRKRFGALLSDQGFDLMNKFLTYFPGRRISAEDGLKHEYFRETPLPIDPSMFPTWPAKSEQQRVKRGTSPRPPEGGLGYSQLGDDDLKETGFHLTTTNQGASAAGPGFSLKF

[13] = target: T4, Testis-specific serine/threonine-protein kinase 1 (Homo sapiens) (UniProt Q9BXA7); settings: at 10 µM
T4 sequence (whole entry): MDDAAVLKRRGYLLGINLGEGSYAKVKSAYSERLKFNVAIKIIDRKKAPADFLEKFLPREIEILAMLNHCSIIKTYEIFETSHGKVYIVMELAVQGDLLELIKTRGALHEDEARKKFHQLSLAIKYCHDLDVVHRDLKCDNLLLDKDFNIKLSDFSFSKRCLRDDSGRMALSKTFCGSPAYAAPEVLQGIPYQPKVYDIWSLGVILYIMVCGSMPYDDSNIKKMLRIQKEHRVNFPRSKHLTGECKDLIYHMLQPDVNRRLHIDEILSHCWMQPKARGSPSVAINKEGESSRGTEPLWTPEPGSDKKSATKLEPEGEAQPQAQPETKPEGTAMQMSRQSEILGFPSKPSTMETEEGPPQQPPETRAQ

C=CC(=O)Nc1cc(-n2c(=O)ccc3cnc4ccc(-c5ccc(NS(C)(=O)=O)cc5)cc4c32)ccc1C
% of control [1]: 89%

Nc1cnc(N2CCc3cc(S(=O)(=O)Nc4c(F)cc(Cl)cc4F)cc(N4CCCC4=O)c32)nc1 [TP-020n]
% of control [2]: 100%

CC(=O)Nc1cccc(-n2c(=O)n(C3CC3)c(=O)c3c(Nc4ccc(I)cc4F)n(C)c(=O)c(C)c32)c1
% of control [3]: 113%

CCc1cccc(CC)c1NC(=O)c1nn(C)c2c1CCc1cnc(Nc3ccc(C(=O)NC4CCN(C)CC4)cc3OC(F)(F)F)nc1-2
pIC50 [4]: < 5.00

C=CC(=O)Nc1cccc(C(=O)Nc2ccc(Nc3cc(-c4[nH]c(SC)nc4C)ccn3)cc2)c1
% of control ([5]; at 1 µM): 86% | % of control ([5]; at 5 µM): 69% | % of control ([6]; at 1 µM): 85% | % of control ([6]; at 5 µM): 73% | % of control ([7]; at 1 µM): 84% | % of control ([7]; at 5 µM): 74% | % of control ([8]; at 1 µM): 72% | % of control ([8]; at 5 µM): 55% | % of control ([9]; at 1 µM): 98% | % of control ([9]; at 5 µM): 72% | % of control ([10]; at 1 µM): 92% | % of control ([10]; at 5 µM): 72% | % of control ([11]; at 1 µM): 85% | % of control ([11]; at 5 µM): 66%

CC[C@@H]1[C@H](F)C(=O)N[C@@H]1COc1nccc2cc(C(N)=O)c(OC)cc12 [ZIMLOVISERTIB]
% of inhibition [12]: 6.9%

CCN(CC)CCCCNc1ncc2cc(-c3cc(OC)cc(OC)c3)c(NC(=O)NC(C)(C)C)nc2n1
% of control [13]: 100%
